# Assay results published in ChEMBL document CHEMBL1128244, “Synthesis, structure-activity relationships, and pharmacological evaluation of pyrrolo[3,2,1-ij]quinoline derivatives: potent histamine and platelet activating factor antagonism and 5-lipoxygenase inhibitory properties. Potential therapeutic application in asthma” (J Med Chem, 1995).
# The source made the active and inactive calls. No cut-off for these calls is given here.
# Columns and labels:
# Oryctolagus cuniculus = species on record: Oryctolagus cuniculus; experiment: Test against PAF-induced aggregation of rabbit platelets in vitro; assay type: functional
# Cavia porcellus [1] = species on record: Cavia porcellus; experiment: Ability to inhibit histamine-induced contractions of isolated guinea pig ileum; assay type: functional
# Rattus norvegicus [2] = species on record: Rattus norvegicus; experiment: Inhibition of cutaneous histamine reaction in rats.; assay type: functional
# [3] = molecular target: T1, Polyunsaturated fatty acid 5-lipoxygenase (Homo sapiens) (UniProt P09917); experiment: (§1) Inhibitory activity uM; settings: Cavia porcellus; concentration not given here
# T1 sequence (whole entry): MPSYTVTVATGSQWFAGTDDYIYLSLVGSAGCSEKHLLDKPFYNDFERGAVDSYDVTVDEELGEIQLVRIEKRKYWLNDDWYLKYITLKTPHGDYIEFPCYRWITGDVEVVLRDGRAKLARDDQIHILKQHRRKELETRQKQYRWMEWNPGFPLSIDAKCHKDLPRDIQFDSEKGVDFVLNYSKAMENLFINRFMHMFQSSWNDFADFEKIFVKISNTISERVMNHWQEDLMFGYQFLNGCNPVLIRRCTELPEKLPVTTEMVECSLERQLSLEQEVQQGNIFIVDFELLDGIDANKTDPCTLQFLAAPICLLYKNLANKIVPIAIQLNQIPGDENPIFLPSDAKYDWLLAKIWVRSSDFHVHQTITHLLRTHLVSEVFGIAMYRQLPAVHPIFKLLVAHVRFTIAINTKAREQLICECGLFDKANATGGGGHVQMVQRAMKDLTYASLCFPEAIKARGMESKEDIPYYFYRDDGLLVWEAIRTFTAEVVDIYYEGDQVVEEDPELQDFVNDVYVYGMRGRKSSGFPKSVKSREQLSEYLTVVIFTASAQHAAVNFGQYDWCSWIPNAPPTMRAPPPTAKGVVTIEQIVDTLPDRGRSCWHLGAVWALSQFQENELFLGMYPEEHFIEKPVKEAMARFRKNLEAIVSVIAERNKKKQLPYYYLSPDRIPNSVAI
# [4] = molecular target: T1, Polyunsaturated fatty acid 5-lipoxygenase (Homo sapiens); experiment: as §1; assay type: functional; settings: Cavia porcellus; concentration not given here
# Cavia porcellus [5] = species on record: Cavia porcellus; experiment: Ability to inhibit histamine-induced contractions of isolated guinea pig ileum at 10e-5 M; assay type: functional
# Cavia porcellus [6] = experiment: Ability to inhibit histamine phase of platelet activating factor (PAF)-induced bronchoconstriction in vivo in pulmonary function assays in which Guinea pigs were dosed orally 5 hours prior to test; assay type: functional; settings: po
# Cavia porcellus [7] = species on record: Cavia porcellus; experiment: Ability to inhibit histamine-induced contractions of isolated guinea pig ileum at 10e-6 M; Not active; assay type: functional
# Cavia porcellus [8] = experiment: Ability to inhibit histamine phase of antigen-induced bronchoconstriction in vivo in pulmonary function assays in which Guinea pigs were dosed orally 5 hours prior to test at 10 uM/kg; Not active; assay type: functional, organism-based
# Cavia porcellus [9] = experiment: Ability to inhibit histamine phase of antigen-induced bronchoconstriction in vivo in pulmonary function assays in which Guinea pigs were dosed orally 5 hours prior to test; assay type: functional; settings: po
# Rattus norvegicus [10] = experiment: Antiallergic activity in the rat PCA assay following oral administration 1 hour before antigen challenge. Five animals were used in this experiment.; assay type: functional
# [11] = molecular target: T1, Polyunsaturated fatty acid 5-lipoxygenase (Homo sapiens); experiment: Inhibitory activity against partially-purified Guinea pig PMN 5-lipoxygenase at 10 uM; settings: Cavia porcellus, target entry is the homologue from another species
SMILES,IC50 (Oryctolagus cuniculus) [nM],IC50 (Cavia porcellus [1]) [nM],ED50 (Rattus norvegicus [2]) [µmol/kg],other results
COc1ccc(CN(CCN(C)C)c2ccccn2)cc1 [PYRILAMINE],> 100000,17,–,–
Cc1ccnc(N2CCN(CCc3c(Cc4ccccc4)n4c5c(cccc35)CCC4)CC2)c1,22000,2900,–,–
Cc1ccnc(N2CCN(CCCc3c(C)n4c5c(cccc35)CCC4)CC2)c1,32000,1800,–,–
Cc1ccnc(N2CCN(CCc3c(C)n4c5c(cc(N)cc35)CCC4)CC2)c1,84000,80,2.5,inhibition [4]: 64%
CC(C)=Cc1cc2c3c(c1)c(CCN1CCN(c4cc(C)ccn4)CC1)c(C)n3CCC2,22000,140,4.9,inhibition [3]: 41%
CC(=O)Oc1cc2c3c(c1)c(CCN1CCN(c4cc(C)ccn4)CC1)c(C)n3CCC2,–,23,–,–
Cc1ccc(N2CCN(CCc3c(C)n4c5c(cccc35)CCC4)CC2)nc1,> 100000,180,–,–
Cc1ccnc(N2CCN(CCc3c(C)n4c5c(cccc35)CCC4C3CCCCC3)CC2)c1 (stereo unspecified),25000,–,–,inhibition at 10 µM (Cavia porcellus [5]): 50%
Cc1ccnc(N2CCN(CCc3c(C)n4c5c(cc(C(=O)/C=C/c6ccccc6)cc35)CCC4)CC2)c1,–,190,–,–
COc1ccc(N2CCN(CCc3c(C)n4c5c(cccc35)CCC4)CC2)cc1,82000,–,–,inhibition at 10 µM (Cavia porcellus [5]): 9%
Cc1c(CCN2CCN(c3ccc(F)cc3)CC2)c2cccc3c2n1CCC3,> 100000,76,–,–
Cc1c(CCN2CCC(C(=O)c3ccc(F)cc3)CC2)c2cccc3c2n1CCC3,> 100000,490,–,–
Cc1ccnc(N2CCN(CCc3c(C)n4c5c(cc(O)cc35)CCC4)CC2)c1,39000,21,6,–
Cc1c(CCN2CCN(c3ccc(F)c(Cl)c3)CC2)c2cccc3c2n1CCC3,> 100000,510,–,–
O=C(c1ccccc1)c1cccc(NC(=O)c2ccn3c2CS[C@@H]3c2cccnc2)c1 [TULOPAFANT],–,–,–,ED50 (Cavia porcellus [6]): 5.5 µmol/kg; IC50 (Cavia porcellus [7]): Not Active; ED50 (Cavia porcellus [8]): inactive
Cc1ccc(N2CCN(C(=O)Cc3c(C)n4c5c(cccc35)CCC4)CC2)nc1,42000,8300,–,–

SMILES,IC50 (Oryctolagus cuniculus) [nM],IC50 (Cavia porcellus [1]) [nM],ED50 (Rattus norvegicus [2]) [µmol/kg],other results
Cc1ccnc(N2CCN(CCc3c(C)n4c5c(cc(NC(=O)c6ccccc6)cc35)CCC4)CC2)c1,> 100000,86,3,inhibition [3]: 40%
CN1CCC(=C2c3ccccc3CC(=O)c3sccc32)CC1 [KETOTIFEN],> 100000,6.4,0.16,ED50 (Cavia porcellus [9]): 0.31 µmol/kg; ED50 (Rattus norvegicus [10]): 0.44 µmol/kg
Cc1ccnc(N2CCN(CCc3cn4c5c(cccc35)CCC4)CC2)c1,31000,63,–,–
Cc1c(CCN2CCN(c3ccc(Br)cn3)CC2)c2cccc3c2n1CCC3,> 100000,990,–,–
Cc1c(CCN2CCC(c3ccccc3)CC2)c2cccc3c2n1CCC3,75000,450,–,–
CN1CCCC(n2nc(Cc3ccc(Cl)cc3)c3ccccc3c2=O)CC1 (stereo unspecified) [AZELASTINE],> 100000,20,3.3,ED50 (Rattus norvegicus [10]): 7 µmol/kg
Cc1c(CCCN2CCN(c3ccc(F)cc3)CC2)c2cccc3c2n1CCC3,> 100000,1900,–,–
CC(c1cc2ccccc2s1)N(O)C(N)=O (stereo unspecified),–,–,–,ED50 (Cavia porcellus [8]): inactive
Cc1c(CCN2CCN(c3ccccn3)CC2)c2cccc3c2n1CCC3,40000,65,–,–
Cc1c(CC(=O)N2CCN(c3ccc(F)cc3)CC2)c2cccc3c2n1CCC3,44000,7100,–,–
Cc1cccnc1N1CCN(CCc2c(C)n3c4c(cccc24)CCC3)CC1,67000,–,–,inhibition at 10 µM (Cavia porcellus [5]): 7%
CCCCCCCC1CCc2cccc3c(CCN4CCN(c5cc(C)ccn5)CC4)c(C)n1c23 (stereo unspecified),–,–,–,inhibition at 10 µM (Cavia porcellus [5]): 50%
Cc1ccnc(N2CCN(CCc3c(C)n4c5c(cc(CC6CCCCC6)cc35)CCC4)CC2)c1,39000,–,–,inhibition at 10 µM (Cavia porcellus [5]): 50%
O=C(O)COCCN1CCN(C(c2ccccc2)c2ccc(Cl)cc2)CC1 (stereo unspecified) [CETIRIZINE],> 100000,380,–,–
COc1ccccc1N1CCN(CCc2c(C)n3c4c(cccc24)CCC3)CC1,82000,250,–,–
Cc1cccc(N2CCN(CCc3c(C)n4c5c(cccc35)CCC4)CC2)n1,47000,350,–,–

# The next lines start with results.
IC50 (Oryctolagus cuniculus) [nM],IC50 (Cavia porcellus [1]) [nM],SMILES,ED50 (Rattus norvegicus [2]) [µmol/kg],other results
20000,1400,Cc1ccnc(N2CCN(C(=O)CCc3c(C)n4c5c(cccc35)CCC4)CC2)c1,–,–
2600,32,Cc1ccnc(N2CCN(CCc3c(C)n4c5c(cccc35)CCC4)CC2)c1,4,inhibition [3]: 0%
800,290,Cc1ccnc(N2CCN(CCc3c(C)n4c5c(cc(C(=O)c6ccccc6)cc35)CCC4)CC2)c1,–,–
9100,70,Cc1ccnc(N2CCN(CCc3c(C)n4c5c(cc(C)cc35)CCC4)CC2)c1,–,–
9600,5900,Cc1ccnc(N2CCN(C(=O)Cc3c(C)n4c5c(cccc35)CCC4)CC2)c1,–,–
3300,–,Cc1ccnc(N2CCN(CCc3c(-c4ccc(Cl)cc4)n4c5c(cccc35)CCC4)CC2)c1,–,inhibition at 10 µM (Cavia porcellus [5]): 6%
2400,1200,CCCCCCC(=O)c1cc2c3c(c1)c(CCN1CCN(c4cc(C)ccn4)CC1)c(C)n3CCC2,–,–
4300,800,Cc1ccnc(N2CCN(CCc3c(C)n4c5c(cc(CC(C)C)cc35)CCC4)CC2)c1,5.1,inhibition [3]: 20%
2000,400,CCCCC1CCc2cc(C(=O)C(C)C)cc3c(CCN4CCN(c5cc(C)ccn5)CC4)c(C)n1c23 (stereo unspecified),3.3,inhibition [3]: 50%
4200,–,Cc1ccnc(N2CCN(CCc3c(-c4ccccc4)n4c5c(cccc35)CCC4)CC2)c1,–,inhibition at 10 µM (Cavia porcellus [5]): 24%
6900,33,Cc1ccnc(N2CCN(CCc3c(C)n4c5c(cccc35)CCC4C)CC2)c1 (stereo unspecified),2.6,inhibition [3]: 19%
4800,980,CCCCC1CCc2cccc3c(CCN4CCN(c5cc(C)ccn5)CC4)c(C)n1c23 (stereo unspecified),2.1,inhibition [3]: 29%
2000,–,Cc1ccnc(N2CCN(CCc3c(-c4ccc(F)cc4)n4c5c(cccc35)CCC4)CC2)c1,–,inhibition at 10 µM (Cavia porcellus [5]): 3%
2000,250,Cc1ccnc(N2CCN(CCc3c(C)n4c5c(cc(C(=O)C6CCCCC6)cc35)CCC4)CC2)c1,2.9,inhibition [3]: 68%
2000,–,Cc1ccnc(N2CCN(CCc3c(-c4ccc(O)cc4)n4c5c(cccc35)CCC4)CC2)c1,–,inhibition at 10 µM (Cavia porcellus [5]): 14%
1400,340,CCCCC1CCc2cc(OC)cc3c(CCN4CCN(c5cc(C)ccn5)CC4)c(C)n1c23 (stereo unspecified),0.9,inhibition [3]: 50%
2800,2400,Cc1ccnc(N2CCN(CCc3c(C)n4c5c(cc(Cc6ccccc6)cc35)CCC4)CC2)c1,–,–
7500,19,CC(=O)c1cc2c3c(c1)c(CCN1CCN(c4cc(C)ccn4)CC1)c(C)n3CCC2,2,inhibition [3]: 48%
4200,110,Cc1ccnc(N2CCN(CCc3c(C)n4c5c(cc(C(O)C(C)C)cc35)CCC4)CC2)c1 (stereo unspecified),2.6,inhibition [3]: 8%
2000,260,CCCCC1CCc2cc(O)cc3c(CCN4CCN(c5cc(C)ccn5)CC4)c(C)n1c23 (stereo unspecified),2.8,ED50 (Cavia porcellus [9]): 1.9 µmol/kg; ED50 (Cavia porcellus [6]): 2.1 µmol/kg; inhibition [3]: 100%; ED50 (Rattus norvegicus [10]): 0.9 µmol/kg
600,–,COc1ccc(-c2c(CCN3CCN(c4cc(C)ccn4)CC3)c3cccc4c3n2CCC4)cc1,–,inhibition at 10 µM (Cavia porcellus [5]): 15%
6200,30,COc1cc2c3c(c1)c(CCN1CCN(c4cc(C)ccn4)CC1)c(C)n3CCC2,0.7,inhibition [3]: 15%
2200,280,Cc1ccnc(N2CCN(CCc3c(C)n4c5c(cccc35)CCC4c3ccccc3)CC2)c1 (stereo unspecified),2.9,inhibition [3]: 17%
2000,–,Cc1ccc(-c2c(CCN3CCN(c4cc(C)ccn4)CC3)c3cccc4c3n2CCC4)cc1,–,IC50 (Cavia porcellus [5]): 20000 nM
1900,37,Cc1ccnc(N2CCN(CCc3c(C)n4c5c(cc(C(=O)C(C)C)cc35)CCC4)CC2)c1,2.9,inhibition [11]: 36%
5900,89,Cc1ccnc(N2CCN(CCc3c(C)n4c5c(cc(C(=O)C(C)(C)C)cc35)CCC4)CC2)c1,3.3,inhibition [3]: 22%
